According to publication PMC11336009 (GeroScience, 2024):

Columns and labels:
[1] = tested on: 6-OHDA unilateral medial forebrain bundle lesioned rat; assay: BrdU immunoreactivity (neurogenesis marker) in SVZ and striatum of 6-OHDA lesioned rats; format: in vivo; details: delayed treatment 30 mg/kg daily p.o.; BrdU 50 mg/kg i.p. day 8 to 20; day 21
Procedure: Gliptin treatment was initiated either prior to or after 6-OHDA lesioning (early and delayed treatment, respectively) as follows. […]. An estimated dose for a 250-g rat under this treatment was 10 mg/kg/day. […]. An estimated, clinically relevant, dose for a 250 g rat under this treatment was thus 30 mg/kg/day. Specifically for drug admixture into diet, drug was solubilized in 100% ETOH that was then added to the 16.2 g of food chow. Thereafter, the ETOH was evaporated off. […] Animals were weighed twice weekly and the amount of drug added to the chow was modified accordingly to maintain the daily required dose. […]. […] Specifically, the 10 mg/kg oral daily drug dose in our rat studies is equivalent to the routine human daily oral dose (100 mg in a 65 kg human) of these gliptins used in T2DM, and the 30 mg/kg rat dose is equivalent to a threefold higher dose that is well-tolerated in humans.
Following the exact same protocol described in Yin et al., 2012 [34] and Harvey et al. 2004 [36], anesthetized rats were subjected to a 6-OHDA unilateral medial forebrain bundle lesion. Briefly, 6-OHDA (2.27 µg/µL × 5 µL in 0.9% NaCl containing 0.2 mg/ml ascorbic acid) was unilaterally injected into the medial forebrain bundle (-4.4 mm AP, 1.2 mm ML relative to bregma and 8.4 mm below skull) over 4 min through a syringe pump (Micro 4, WPI, Sarasota, FL), as approved under National Health Research Institutes, Taiwan, Protocol # 102,068-A; 102,102-A. Following this procedure, all animals were monitored daily for adverse signs of health for 1 week (in line with the approved protocols).
BrdU (Sigma-Aldrich, St. Louis, MO) was injected parenterally (i.p.) from day 8 to day 20 after 6-OHDA lesioning at the dose of 50 mg/kg/day as a marker of neurogenesis. Animals were euthanized for immunostaining on day 21.
BrdU and TH localization was determined by immunohistochemistry. Serial sections of the entire brain were cut at 30 μm thickness by cryostat. One series from every sixth section was stained for TH. To control for staining variability, specimens from all experimental groups were included in every batch and reacted together in a net well tray under the same conditions. Sections were rinsed in 0.1 M phosphate buffer (PB), blocked with 4% bovine serum albumin (BSA) and 0.3% Triton x-100 in 0.1 M PB. […]
TH immunoreactivity and BrdU cell number in striatum were averaged from 3 brain sections with visible anterior commissure in each animal. TH immunoreactivity in SNc was measured every 6th Sect. […] Nigral volume was analyzed using Cavalieri's method.

[2] = Body weight of 6-OHDA lesioned rats under chronic gliptin treatment; format: in vivo, rat; details: 12 mg/kg daily from day 7 after lesioning, one day before and 28 days after lesioning
Procedure: Gliptin treatment was initiated either prior to or after 6-OHDA lesioning (early and delayed treatment, respectively) as follows. […] Specifically for drug admixture into diet, drug was solubilized in 100% ETOH that was then added to the 16.2 g of food chow. Thereafter, the ETOH was evaporated off. […] Animals were weighed twice weekly and the amount of drug added to the chow was modified accordingly to maintain the daily required dose. […] Specifically, the 10 mg/kg oral daily drug dose in our rat studies is equivalent to the routine human daily oral dose (100 mg in a 65 kg human) of these gliptins used in T2DM, and the 30 mg/kg rat dose is equivalent to a threefold higher dose that is well-tolerated in humans.

SMILES | BrdU labeling in the SVZ vs vehicle [1] | BrdU labeling in the lesioned striatum vs vehicle [1] | Body weight in 6-OHDA lesioned rats [2]
O=C([C@@H]1C[C@H](N2CCN(c3ncccn3)CC2)CN1)N1CCC(F)(F)C1 [PF-00734,200, Gosogliptin] | did not alter | significantly increased | did not alter body weight
N[C@@H](CC(=O)N1CCn2c(nnc2C(F)(F)F)C1)Cc1cc(F)c(F)cc1F [Sitagliptin] | did not alter | significantly increased | did not alter body weight
